Drawing on ChEMBL document CHEMBL2424591 (Bioorg Med Chem, 2013), this text covers IC50 for 33 molecules.

The target in the assay is T1, Ribosyldihydronicotinamide dehydrogenase [quinone] (Homo sapiens, UniProt P16083).
T1 sequence (P16083 whole entry): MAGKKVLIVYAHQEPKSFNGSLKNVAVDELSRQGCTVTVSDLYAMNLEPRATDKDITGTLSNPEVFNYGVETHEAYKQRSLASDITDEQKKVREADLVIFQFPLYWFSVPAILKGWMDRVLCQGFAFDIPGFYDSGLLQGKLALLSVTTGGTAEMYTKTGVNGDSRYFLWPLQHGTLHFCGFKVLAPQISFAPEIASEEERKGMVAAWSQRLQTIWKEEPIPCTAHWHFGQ
Briefly: Inhibition of human quinone reductase 2 expressed in Escherichia coli BL21(DE3) using N-methyldihydronicotinamide as co-substrate.

A value given as a limit tells only on which side of the number the result lay.

The IC50 is the concentration that gives 50% inhibition. Low values mean inhibition by little substance, high ones a need for much substance. For `N#C/C(=C\c1cc(O)cc(O)c1)c1ccc(O)cc1`, the IC50 was 5.9 µM.
`O=C(Nc1cc(O)cc(O)c1)c1ccc(O)cc1`: half-maximal inhibition (IC50) was put at 16.8 µM.
In the case of `COc1ccc(/C(C)=C/c2ccc(OC)c(OC)c2)cc1`, 6.7 µM corresponded to half-maximal inhibition (IC50).
In the case of `O=C(Nc1ccc(O)cc1)c1cc(O)cc(O)c1`, the IC50 worked out at 27.6 µM.
`COc1ccc(/C=C(/c2cc(OC)cc(OC)c2)C(F)(F)F)cc1` gave an IC50 of 13 µM.
`COc1ccc(/C=C(/c2cccc(C(F)(F)F)c2)C(F)(F)F)cc1OC`: the IC50 turned out to be 0.18 µM.
With `C/C(=C\c1ccc(O)cc1)c1cc(O)cc(O)c1`, the IC50 stood at 4.8 µM.
To `COc1cc(/C=C/c2ccc(O)cc2)cc(OC)c1` [PTEROSTILBENE] belongs 5.1 µM; to `COc1ccc(/C(C=O)=C/c2cc(OC)cc(OC)c2)cc1`, 24.2 µM; to `COc1cc(/C=C/c2ccc(OC)c(OC)c2)cc(OC)c1` [(E)-3,4,3',5'-TETRAMETHOXYSTILBENE], 37.1 µM.
For the molecule `OC/C(=C\c1cc(O)cc(O)c1)c1ccc(O)cc1`, the midpoint of inhibition, the IC50, lay at 5.1 µM.
Molecule `COc1ccc(/C(=C\c2cc(OC)cc(OC)c2)CO)cc1` gave an IC50 of 27.5 µM.
`COc1ccc(/C(C)=C/c2cc(OC)cc(OC)c2)cc1`: the IC50 turned out to be 20.1 µM.
For `O=C/C(=C/c1cc(O)cc(O)c1)c1ccc(O)cc1`, the IC50 stood at 25.5 µM.
`COc1ccc(/C=C/c2cc(OC)cc(OC)c2)cc1` [TRISMETHOXYRESVERATROL] showed an IC50 of 14.6 µM.
For `NC(=O)/C(=C\c1cc(O)cc(O)c1)c1ccc(O)cc1`, the IC50 was 9.3 µM.
Regarding `CC/C(=C\c1ccc(N(C)C)cc1)c1cc(O)cc(O)c1`, 10.9 µM corresponded to half-maximal inhibition (IC50).
The molecule `COc1ccc(/C(C)=C/c2cc(O)cc(O)c2)cc1OC` gave an IC50 of 33.7 µM.
In turn, `COc1cccc(/C=C/c2ccc(OC)c(OC)c2)c1` returned an IC50 of 6.8 µM.
For `COc1ccc(/C=C/c2ccc(O)c(O)c2)cc1`, it took 9.3 µM to reach half-maximal inhibition (IC50).
In turn, `Oc1ccc(/C=C/c2ccc(O)c(O)c2)cc1` yielded an IC50 of 6 µM.
In the case of `COc1cc(/C=C(\C)c2ccc(OC)c(OC)c2)cc(OC)c1`, 9.9 µM corresponded to half-maximal inhibition (IC50).
`COc1ccc(/C(C)=C/c2cc(O)cc(O)c2)cc1` came in with an IC50 of 12 µM.
In turn, `C/C(=C\c1ccc(C(F)(F)F)cc1)c1ccc(O)cc1` showed an IC50 of 2.8 µM.
The molecule `COc1cc(/C=C/c2ccc3ccccc3c2)cc(OC)c1` gave an IC50 of 0.73 µM.
`CC/C(=C\c1cc(OC)cc(OC)c1)c1ccc(OC)c(OC)c1` displayed an IC50 of 16.3 µM.
Consider `C/C(=C\c1cc(O)cc(O)c1)c1ccc(O)cc1`, for which the IC50 is 39 µM.
In the case of `COc1ccc(/C=C/c2ccc3ccccc3c2)cc1OC`, the IC50 stood at 5.5 µM.
In the case of `COc1cc(/C=C/c2ccc(F)cc2)cc(OC)c1`, it took 4.6 µM to reach half-maximal inhibition (IC50).
Molecule `Oc1ccc(/C=C/c2ccc(C(F)(F)F)cc2)cc1O` registered an IC50 below 14.2 µM.
Take `COc1ccc(/C=C/c2ccc(N(C)C)cc2)cc1OC`: inhibition was half-maximal at 13 µM (IC50).
In the case of `COc1ccc(/C(C#N)=C/c2cc(OC)cc(OC)c2)cc1`, it took 31.6 µM to reach half-maximal inhibition (IC50).
The figure for `Oc1ccc(/C=C/c2cccc(F)c2)cc1O` is 20.8 µM.
